# Measured values as given in PubChem BioAssay (NCI).
#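 Where inhibition never reached the appropriate level, the endpoint shown equals the highest concentration tested. Otherwise, values were interpolated linearly from a five-concentration, 48-hour dose response in 96-well plates. GI50: concentration for 50% inhibition of growth. At the TGI there is no net growth.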
# Columns and labels:
# Assay in all cases: DTP human tumour cell line panel, 48 h
# HOP-92 NSCLC = test system: HOP-92 NSCLC
# HCC-2998 colon = test system: HCC-2998 colon
# SF-268 CNS = test system: SF-268 CNS
# A498 renal = test system: A498 renal
# MOLT-4 leukemia = test system: MOLT-4 leukemia
# OVCAR-3 ovarian = test system: OVCAR-3 ovarian
# OVCAR-4 ovarian = test system: OVCAR-4 ovarian
# IGROV1 ovarian = test system: IGROV1 ovarian
# DU-145 prostate = test system: DU-145 prostate
# PC-3 prostate = test system: PC-3 prostate
Compound,TGI (HOP-92 NSCLC) [µM],TGI (HCC-2998 colon) [µM],TGI (SF-268 CNS) [µM],TGI (A498 renal) [µM],TGI (MOLT-4 leukemia) [µM],TGI (OVCAR-3 ovarian) [µM],TGI (OVCAR-4 ovarian) [µM],TGI (IGROV1 ovarian) [µM],TGI (DU-145 prostate) [µM],TGI (PC-3 prostate) [µM],GI50 (HOP-92 NSCLC) [µM],GI50 (HCC-2998 colon) [µM],GI50 (SF-268 CNS) [µM],GI50 (A498 renal) [µM],GI50 (OVCAR-3 ovarian) [µM],GI50 (OVCAR-4 ovarian) [µM],GI50 (IGROV1 ovarian) [µM],GI50 (DU-145 prostate) [µM],GI50 (PC-3 prostate) [µM]
N#CC(NCc1cccc(CNC(C#N)c2ccccc2)c1)c1ccccc1 (configuration not stated),89.8,28.1,> 100,> 100,39,> 100,> 100,41.8,> 100,> 100,,,,,,,,,
O=[N+]([O-])c1ccc2[nH]nc(OCc3ccccc3Cl)c2c1,47.4,> 100,> 100,> 100,> 100,73.9,> 100,> 100,> 100,> 100,,,,,,,,,
CC(=O)N1C(C(=O)NC2CCCCC2)CSC1c1ccccc1 (configuration not stated),> 100,> 100,> 100,> 100,> 100,> 100,> 100,> 100,> 100,> 100,,,,,,,,,
NC1(c2cc3ccccc3s2)CCCC1,> 100,46.1,> 100,> 100,47.3,> 100,> 100,> 100,> 100,81.4,,,,,,,,,
Cc1ccccc1C(=N)c1ccccc1Cc1cccc2ccccc12,54.8,36.7,68.2,95,42.3,26.6,> 100,> 100,42.5,> 100,,,,,,,,,
CCOC(=O)N1CCN(Cc2cc(=O)n3ccc(C)cc3n2)CC1,> 100,> 100,> 100,> 100,> 100,> 100,> 100,> 100,> 100,> 100,,,,,,,,,
O=C(/C=C/c1ccccc1)C[C@@H](O)C[C@@H]1CC=CC(=O)O1,16,15.7,27.7,30.9,12.5,13.3,45.7,31.2,> 60.5,31.8,,,,,,,,,
CCCCCC1=CC(=O)C1(Cl)Cl,63.3,27.7,55.5,43.3,15.3,27,38.1,48,26.1,42.1,,,,,,,,,
C#CCn1c(=O)c2ccccc2n(CC#C)c1=O,> 10,> 10,> 10,> 10,> 10,> 10,> 10,> 10,> 10,> 10,,,,,,,,,
COc1ccc(-c2[nH]c3c4c(nc5c(c24)C(=O)CC(C)(C)C5)CC(C)(C)C3)cc1,> 100,> 100,> 100,> 100,94,> 100,> 100,,> 100,92.6,,,,,,,,,
COc1ccc(CN2C(=O)/C(=C\c3cc(OC)c(OC)c(OC)c3)c3ccccc32)cc1,7.3,3.31,7.93,14.3,,3.22,> 100,4.64,6.98,> 100,1.96,1.78,2.65,2.79,1.62,3.25,1.72,2.32,3.14
